Reference: patent publication US20100267819A1, “PHARMACEUTICAL COMPOSITION FOR DIABETIC NEPHROPATHY AND ITS PREPARATION AND APPLICATION” (Guangzhou Consun Medicine R&D Medicine, priority 2009, published 2010)

What was measured:
db|db mouse [1] = assay: Urine volume, urine total protein and urine creatinine in 24 hours of db|db mouse in diabetic nephropathy; format: in vivo; details: for Total protein / Urine creatinine / Urine volume: 24 hour urine after 5 weeks
Protocol: (§1) During the experiment, all the mouse are bred in lamina flow cage, free to food and water. Water and underpad are changed every day to keep the cage clean, and the water, seedstuff, underpad are stationary. […] All the appliances and food are sterilized everyday. […] Moreover, 10 8-week-old B6 mouse are taken as the normal control. Each group is given 0.4 ml corresponding drug in different concertration or physiological saline by intragastric administration for 5 weeks. Determinate the food-intake and water-intake, weigh every week, determinate the blood glucose every week.

CTGF = CTGF express of rat mesangial cells cultured under high glucose (immunocytochemistry); format: cell-based; details: high glucose 25 mmol/L, 48 h, CTGF staining; extract 0.1 g/L, compounds 1, 0.1, 0.01 μmol/L, co-use 0.06:0.03, 0.05:0.05, 0.03:0.06 μmol/L
Protocol: Take the rat mesangial cells in log phase growth, prepare into unicell suspension (5×10^4 cells/ml) with 5% DMEM medium of newborn calf serum, inoculate to the 24 well plate coated with coverslip for 1 ml/well (cell quantity: 5×10^4/well), incubated under 5% CO2 incubator at 37° C. for 24 hours, added the DMEM medium without serum, incubated 24 hours to make all the cells to anestrum. Discard the supernatant, added 900 μl DMEM medium and 100 μl different concentration amylaceum (each concentration for 3 repeat) and incubated 24 h, 48 h, 72 h and 96 h, respectively. Observed the modeling results after staining with HE and PAS. […] Put the coverslips pre-treatment by poly-L-lysine into 24-well cell culture plates before added the unicell suspension, then cultured these cells until the step of synchronization. […] Each group repeats for 3 times. Then, all the groups are incubated under 5% CO2 incubator at 37° C. for 48 h. After that, take out of the coverslips for HE staining, PAS staining and immunocytochemistry staining […]

db|db mouse [2] = assay: Blood glucose of db|db mouse in diabetic nephropathy; format: in vivo; details: for Blood glucose value: db|db mouse
Protocol: as §1

db|db mouse [3] = assay: Kidney weight and kidney index of db|db mouse in diabetic nephropathy; format: in vivo; details: after 5 weeks; for Kidned index: kidney weight/body weight×1000
Protocol: as §1

[4] = tested on: Rat messangial cell cell line HBZY-1; assay: Hypertrophy of rat mesangial cells cultured under high glucose (HE staining); format: cell-based; details: high glucose 25 mmol/L, 48 h, extract 0.1 g/L, compounds 1, 0.1, 0.01 μmol/L, co-use 0.06:0.03, 0.05:0.05, 0.03:0.06 μmol/L
Protocol: (§2) Take the rat mesangial cells in log phase growth, prepare into unicell suspension (5×10^4 cells/ml) with 5% DMEM medium of newborn calf serum, inoculate to the 24 well plate coated with coverslip for 1 ml/well (cell quantity: 5×10^4/well), incubated under 5% CO2 incubator at 37° C. for 24 hours, added the DMEM medium without serum, incubated 24 hours to make all the cells to anestrum. Discard the supernatant, added 900 μl DMEM medium and 100 μl different concentration amylaceum (each concentration for 3 repeat) and incubated 24 h, 48 h, 72 h and 96 h, respectively. Observed the modeling results after staining with HE and PAS. […] Put the coverslips pre-treatment by poly-L-lysine into 24-well cell culture plates before added the unicell suspension, then cultured these cells until the step of synchronization. […] Each group repeats for 3 times. Then, all the groups are incubated under 5% CO2 incubator at 37° C. for 48 h. After that, take out of the coverslips for HE staining, PAS staining and immunocytochemistry staining Routine HE Staining, Routine PAS Staining, CTGF Staining

[5] = tested on: Rat messangial cell cell line HBZY-1; assay: Extracellular matrix accrementition of rat mesangial cells cultured under high glucose (PAS staining); format: cell-based; details: high glucose 25 mmol/L, 48 h, extract 0.1 g/L, compounds 1, 0.1, 0.01 μmol/L, co-use 0.06:0.03, 0.05:0.05, 0.03:0.06 μmol/L
Protocol: as §2

db|db mouse [6] = assay: Weight of db|db mouse of diabetic nephropathy; format: in vivo; details: for Weight: db|db mouse
Protocol: as §1

[7] = 2 weeks, 0.5 mg/kg intragastric
[8] = 2 weeks, 1.0 mg/kg intragastric
[9] = 2 weeks, 2.0 mg/kg intragastric
[10] = 3 weeks, 0.5 mg/kg intragastric
[11] = 3 weeks, 1.0 mg/kg intragastric
[12] = 3 weeks, 2.0 mg/kg intragastric
[13] = 4 weeks, 0.5 mg/kg intragastric
[14] = 4 weeks, 1.0 mg/kg intragastric
[15] = 4 weeks, 2.0 mg/kg intragastric
[16] = 5 weeks, 0.5 mg/kg intragastric
[17] = 5 weeks, 1.0 mg/kg intragastric
[18] = 5 weeks, 2.0 mg/kg intragastric

O=c1ccc2ccc(O)cc2o1 [7-hydroxycoumarin]
Total protein (db|db mouse [1]; 0.5 mg/kg intragastric): 1.205 ± 0.541 mg
Urine creatinine (db|db mouse [1]; 0.5 mg/kg intragastric): 2.06 ± 0.65 mmol/L
Urine volume (db|db mouse [1]; 0.5 mg/kg intragastric): 1.03 ± 0.28 mL
Total protein (db|db mouse [1]; 1.0 mg/kg intragastric): 0.996 ± 0.338 mg
Urine creatinine (db|db mouse [1]; 1.0 mg/kg intragastric): 2.30 ± 0.71 mmol/L
Urine volume (db|db mouse [1]; 1.0 mg/kg intragastric): 0.72 ± 0.30 mL
Total protein (db|db mouse [1]; 2.0 mg/kg intragastric): 1.147 ± 0.305 mg
Urine creatinine (db|db mouse [1]; 2.0 mg/kg intragastric): 2.79 ± 0.54 mmol/L
Urine volume (db|db mouse [1]; 2.0 mg/kg intragastric): 0.74 ± 0.33 mL
urine creatinine in 24 hours (db|db mouse [1]; vs model group): elevate the urine creatinine
urine total protein in 24 hours (db|db mouse [1]; vs model group): decrease
urine volume in 24 hours (db|db mouse [1]; vs model group): decrease the urine volume
CTGF express of rat mesangial cells induced by high glucose (CTGF): decrease the CTGF express
Blood glucose value (db|db mouse [2]; 1 week, 0.5 mg/kg intragastric): 13.7 ± 4.1 mmol/L
Blood glucose value (db|db mouse [2]; 1 week, 1.0 mg/kg intragastric): 13.4 ± 4.6 mmol/L
Blood glucose value (db|db mouse [2]; 1 week, 2.0 mg/kg intragastric): 13.0 ± 3.6 mmol/L
Blood glucose value (db|db mouse [2]; [7]): 13.6 ± 2.9 mmol/L
Blood glucose value (db|db mouse [2]; [8]): 13.4 ± 2.6 mmol/L
Blood glucose value (db|db mouse [2]; [9]): 13.1 ± 5.1 mmol/L
Blood glucose value (db|db mouse [2]; [10]): 12.9 ± 2.9 mmol/L
Blood glucose value (db|db mouse [2]; [11]): 13.9 ± 4.3 mmol/L
Blood glucose value (db|db mouse [2]; [12]): 13.7 ± 5.1 mmol/L
Blood glucose value (db|db mouse [2]; [13]): 11.2 ± 4.0 mmol/L
Blood glucose value (db|db mouse [2]; [14]): 11.2 ± 4.4 mmol/L
Blood glucose value (db|db mouse [2]; [15]): 10.1 ± 2.4 mmol/L
Blood glucose value (db|db mouse [2]; [16]): 12.1 ± 1.9 mmol/L
Blood glucose value (db|db mouse [2]; [17]): 10.3 ± 2.0 mmol/L
Blood glucose value (db|db mouse [2]; [18]): 10.6 ± 3.0 mmol/L
blood glucose of db|db mouse (db|db mouse [2]; final phase of administration, vs model group, P<0.05): remarkably decrease the blood glucose
kidney index (db|db mouse [3]): obviously decrease
kidney weight (db|db mouse [3]): obviously decrease
Kidned weight (db|db mouse [3]; 0.5 mg/kg intragastric): 0.28 ± 0.04 g
Kidned index (db|db mouse [3]; 0.5 mg/kg intragastric): 11.8 ± 1.5 ‰
Kidned weight (db|db mouse [3]; 1.0 mg/kg intragastric): 0.26 ± 0.03 g
Kidned weight (db|db mouse [3]; 2.0 mg/kg intragastric): 0.27 ± 0.02 g
Kidned index (db|db mouse [3]; 2.0 mg/kg intragastric): 9.4 ± 0.3 ‰
hypertrophy of rat mesangial cells induced by high glucose [4]: restrain significantly the hypertrophy
extracellular matrix of rat mesangial cells induced by high glucose [5]: decrease the extracellular matrix
Weight (db|db mouse [6]; 0 week, 0.5 mg/kg intragastric): 24.5 ± 0.5 g
Weight (db|db mouse [6]; 0 week, 1.0 mg/kg intragastric): 23.4 ± 0.5 g
Weight (db|db mouse [6]; 0 week, 2.0 mg/kg intragastric): 23.7 ± 0.6 g
Weight (db|db mouse [6]; 1 week, 0.5 mg/kg intragastric): 31.5 ± 1.5 g
Weight (db|db mouse [6]; 1 week, 1.0 mg/kg intragastric): 30.2 ± 1.4 g
Weight (db|db mouse [6]; 1 week, 2.0 mg/kg intragastric): 30.3 ± 0.5 g
Weight (db|db mouse [6]; [7]): 35.8 ± 1.8 g
Weight (db|db mouse [6]; [8]): 34.6 ± 1.4 g
Weight (db|db mouse [6]; [9]): 35.5 ± 1.7 g
Weight (db|db mouse [6]; [10]): 39.4 ± 2.0 g
Weight (db|db mouse [6]; [11]): 40.0 ± 2.7 g
Weight (db|db mouse [6]; [12]): 38.6 ± 1.9 g
Weight (db|db mouse [6]; [13]): 43.9 ± 3.1 g
Weight (db|db mouse [6]; [14]): 43.1 ± 2.8 g
Weight (db|db mouse [6]; [15]): 42.3 ± 2.8 g
Weight (db|db mouse [6]; [16]): 46.4 ± 4.6 g
Weight (db|db mouse [6]; [17]): 45.2 ± 4.1 g
Weight (db|db mouse [6]; [18]): 46.1 ± 5.3 g
weight of db|db mouse (db|db mouse [6]; vs model group, P<0.05, intragastric, 5 weeks): restrain the weight
